Assays:
[1] = system: birch-induced production of IL-4 in PBMC; experiment: Birch allergen (Bet v) induced IL-4 production in PBMC cultures of birch allergic subjects; assay type: cell-based, human; settings: for suppression of birch-induced production of IL-4: Bet v 50 μg/ml, 72 h; for in vitro activity (PBMC model): screen of oligovalent β-(1→2) mannosides
Text: (§1) During pollen season, 14 adult birch allergic subjects with allergic rhinoconjunctivitis (12 females and two males) were enrolled in the study (mean age 42.5 years, SD 12.4 years; mean birch-specific IgE (Immunocap, Thermo Fisher Scientific Phadia, Uppsala, Sweden) 36.1 kU/1, SD 31.5 kU/1). They were selected for the study from an earlier cohort based on good birch induced IL-4 responses during pollen season. All samples were taken after informed consent. The study was approved by the local ethics committee.
Peripheral blood mononuclear cells (PBMC) were isolated by Ficoll-Paque density gradient centrifugation (Ficoll-Paque PLUS, GE Healthcare BioSciences AB, Uppsala, Sweden) from heparinized blood samples from study subjects during pollen season. The PBMC were washed twice with Hanks' balanced salt solution (HBSS) buffered with NaHCO3 (pH 7.4) and resuspended in RPMI-1640 culture medium (Invitrogen Co., Carlsbad, Calif., USA) supplemented with 5% autologous serum, 2.5 mM L-glutamine (Sigma-Aldrich Co., St. Louis, Mo.) and 100 μg/ml gentamycin sulfate (Biological Industries Ltd., Kibbutz Beit Haemek, Israel) and applied on 48-well flat-bottomed cell culture plates (Costar, Corning Inc., New York, United States) at a density of […]. Cells were co-cultured in the presence of birch allergen (50 μg/ml, Betula verrucosa, Bet v, Aquagen, ALK-Abellò A/S, Horsholm, Denmark) and compounds 1, 2, 3 and MPL with concentrations 1, 10 and 100 μg/ml and adjuvant CpG-ODN with concentrations 2, 20 and 200 μg/ml to achieve equal molarities. Medium alone served as an unstimulated control. All incubations were performed at +37° C. in humidified atmosphere with 5% CO2. Supernatants from cultures performed in duplicate were collected 72 h after beginning of the stimulation and stored at −70° C.
The cytokines IL-4 and TNF in supernatants were measured with highsensitivity human cytokine Lincoplex kits (LINCO Research, St. Charles, Mo., USA). The assays were performed in accordance with the manufacturer's protocol by employing Luminex technology.
(§2) Wilcoxon's Signed Rank test was used to test statistical significance in PBMC experiments. Single mice groups were compared by the nonparametric Mann-Whitney U-test using GraphPad Prism software (v.5, GraphPad Software Inc., La Jolla, Calif., USA). Data are expressed as mean±SEM and P-values of <0.05 are considered statistically significant.

B16 melanoma cells = experiment: In vivo model of cancer immunotherapy: B16 melanoma tumor growth in mice; design: species or system C57BL/6 mice
Description: as §2
3*10^6 B16 melanoma cells in 100 μl PBS were injected s.c. into the right flank of seven-week-old female C57BL/6 mice. Compound 3 was given i.p. 50 μg/injection in 200 μl PBS five times at 3-day intervals, starting on day 0. Each treatment group contained 10 mice. Tumor volumes were calculated using the formula 0.5*length*width^2. Animals were sacrificed when tumor volumes reached 800 mm^3. Animal experimentations were made following the procedures accepted by Eteli-Suomen Aluehallintavirasto (permission ESAVI/480/Apr. 10.2007/2016).

[2] = system: production of pro-inflammatory cytokine TNF in PBMC; experiment: TNF production in PBMC cultures stimulated with Bet v; assay type: cell-based, human; settings: 100 μg/ml (also printed 100 l/ml), Bet v 50 μg/ml, 72 h
Text: as §1
Peripheral blood mononuclear cells (PBMC) were isolated by Ficoll-Paque density gradient centrifugation (Ficoll-Paque PLUS, GE Healthcare BioSciences AB, Uppsala, Sweden) from heparinized blood samples from study subjects during pollen season. […]
The cytokines IL-4 and TNF in supernatants were measured with highsensitivity human cytokine Lincoplex kits (LINCO Research, St. Charles, Mo., USA). […]
Wilcoxon's Signed Rank test was used to test statistical significance in PBMC experiments. […] Data are expressed as mean±SEM and P-values of <0.05 are considered statistically significant.

[3] = 10 μg/ml adjuvant, PBMC of 14 birch allergic patients
[4] = 100 g/ml or 100 l/ml as printed (highest concentration, b131: 100 μg/ml), PBMC

SMILES | suppression of birch-induced production of IL-4 [1, 3] | suppression of birch-induced production of IL-4 [1, 4] | in vitro activity (PBMC model) [1] | tumor volume as compared to control mice (B16 melanoma cells; Day 9, i.p. 50 μg/injection five times at 3-day intervals) | start of tumor growth as compared to control (B16 melanoma cells; i.p. 50 μg/injection five times at 3-day intervals, starting on day 0) | tumor growth until Day 9 as compared to control (B16 melanoma cells; i.p. 50 μg/injection five times at 3-day intervals, until Day 9) | production of pro-inflammatory cytokine TNF [2]
CC(=O)OCC1O[C@@H](OC2C(OC(C)=O)[C@H](OC(C)=O)C(COC(C)=O)O[C@@H]2OCCOCCOCCn2cc(COCC(COCc3cn(CCOCCOCCO[C@H]4OC(COC(C)=O)[C@@H](OC(C)=O)C(OC(C)=O)C4O[C@@H]4OC(COC(C)=O)[C@@H](OC(C)=O)C(OC(C)=O)C4OC(C)=O)nn3)OCc3cn(CCOCCOCCO[C@H]4OC(COC(C)=O)[C@@H](OC(C)=O)C(OC(C)=O)C4O[C@@H]4OC(COC(C)=O)[C@@H](OC(C)=O)C(OC(C)=O)C4OC(C)=O)nn3)nn2)C(OC(C)=O)C(OC(C)=O)[C@@H]1OC(C)=O (stereo partly drawn) [compound 3, 1,2,3-tris(1-{2-[2-(2-[O-(2,3,4,6-tetra-O-acetyl-β-D-mannopyranosyl)-(1→2)-3,4,6-tri-O-acetyl-α-D-mannopyranosyloxy]ethoxy)-ethoxy]ethyl}-4-methyloxy-1,2,3-triazolyl)propane] | significant suppression | significant suppression | promising in vitro activities | statistically significantly smaller | started later | slower | Significantly increased production
CC(=O)OCC1O[C@H](OCCn2cc(COCC(COCc3cn(CCO[C@H]4OC(COC(C)=O)[C@@H](OC(C)=O)[C@H](OC(C)=O)C4O[C@@H]4OC(COC(C)=O)[C@@H](OC(C)=O)[C@H](OC(C)=O)C4OC(C)=O)nn3)OCc3cn(CCO[C@H]4OC(COC(C)=O)[C@@H](OC(C)=O)[C@H](OC(C)=O)C4O[C@@H]4OC(COC(C)=O)[C@@H](OC(C)=O)[C@H](OC(C)=O)C4OC(C)=O)nn3)nn2)C(O[C@@H]2OC(COC(C)=O)[C@@H](OC(C)=O)[C@H](OC(C)=O)C2OC(C)=O)[C@@H](OC(C)=O)[C@@H]1OC(C)=O (stereo partly drawn) [compound 1, 1,2,3-tris[1-(3-{0-(2,3,4,6-tetra-O-acetyl-β-D-mannopyranosyl)-(1→2)-3,4,6-tri-O-acetyl-α-D-mannopyranosyloxy}ethyl)-4-methyloxy-1,2,3-triazolyl]propane] |  |  | promising in vitro activities |  |  |  | 
CC(=O)OC[C@H]1O[C@@H](O[C@@H]2[C@@H](OCCCn3cc(COCC(COCc4cn(CCCO[C@H]5O[C@H](COC(C)=O)[C@@H](OC(C)=O)[C@H](OC(C)=O)[C@@H]5O[C@@H]5O[C@H](COC(C)=O)[C@@H](OC(C)=O)[C@H](OC(C)=O)[C@@H]5OC(C)=O)nn4)OCc4cn(CCCO[C@H]5O[C@H](COC(C)=O)[C@@H](OC(C)=O)[C@H](OC(C)=O)[C@@H]5O[C@@H]5O[C@H](COC(C)=O)[C@@H](OC(C)=O)[C@H](OC(C)=O)[C@@H]5OC(C)=O)nn4)nn3)O[C@H](COC(C)=O)[C@@H](OC(C)=O)[C@@H]2OC(C)=O)[C@@H](OC(C)=O)[C@@H](OC(C)=O)[C@@H]1OC(C)=O (stereo partly drawn) [compound 2, 1,2,3-tris[1-(3-{O-(2,3,4,6-tetra-O-acetyl-β-D-mannopyranosyl)-(1-+2)-3,4,6-tri-O-acetyl-α-D-mannopyranosyloxy}propyl)-4-methyloxy-1,2,3-triazolyl]propane] | significant suppression | significant suppression | promising in vitro activities |  |  |  | Significantly increased production

— patent US20200270294A1, “IMMUNOSTIMULATORY ADJUVANTS AND USES THEREOF” (TURUN YLIOPISTO, priority 2015, published 2020)
